# Laboratory results: PubChem BioAssay (NCI)
#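 Values below derive from 48-hour exposures of cells grown in 96-well plates, with endpoints linearly interpolated between the two concentrations bracketing the appropriate inhibition level. The concentration for 50% growth inhibition is given as GI50. At the TGI there is no net growth.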
# Key:
# Assay in all cases: inhibition of tumour cell growth, NCI panel, 48 h
# 786-0 renal = tested on: 786-0 renal
# A498 renal = tested on: A498 renal
# A549 NSCLC = tested on: A549 NSCLC
# ACHN renal = tested on: ACHN renal
# BT-549 breast = tested on: BT-549 breast
# COLO 205 colon = tested on: COLO 205 colon
# DU-145 prostate = tested on: DU-145 prostate
# EKVX NSCLC = tested on: EKVX NSCLC
# HCC-2998 colon = tested on: HCC-2998 colon
# HCT-116 colon = tested on: HCT-116 colon
# HCT-15 colon = tested on: HCT-15 colon
# HL-60(TB) leukemia = tested on: HL-60(TB) leukemia
# HOP-62 NSCLC = tested on: HOP-62 NSCLC
# HOP-92 NSCLC = tested on: HOP-92 NSCLC
# HS 578T breast = tested on: HS 578T breast
# HT29 colon = tested on: HT29 colon
# IGROV1 ovarian = tested on: IGROV1 ovarian
# K-562 leukemia = tested on: K-562 leukemia
# LOX IMVI melanoma = tested on: LOX IMVI melanoma
# M14 melanoma = tested on: M14 melanoma
# MALME-3M melanoma = tested on: MALME-3M melanoma
# MCF7 breast = tested on: MCF7 breast
# MDA-MB-231 breast = tested on: MDA-MB-231 breast
# MDA-MB-435 = tested on: MDA-MB-435
# MOLT-4 leukemia = tested on: MOLT-4 leukemia
# NCI-H226 lung = tested on: NCI-H226 lung
# NCI-H23 lung = tested on: NCI-H23 lung
# NCI-H460 lung = tested on: NCI-H460 lung
# NCI-H522 lung = tested on: NCI-H522 lung
# NCI/ADR-RES ovarian = tested on: NCI/ADR-RES ovarian
# OVCAR-4 ovarian = tested on: OVCAR-4 ovarian
# OVCAR-5 ovarian = tested on: OVCAR-5 ovarian
# OVCAR-8 ovarian = tested on: OVCAR-8 ovarian
# PC-3 prostate = tested on: PC-3 prostate
# RXF 393 renal = tested on: RXF 393 renal
# SF-268 CNS = tested on: SF-268 CNS
# SF-539 CNS = tested on: SF-539 CNS
# SK-MEL-2 melanoma = tested on: SK-MEL-2 melanoma
# SK-MEL-28 melanoma = tested on: SK-MEL-28 melanoma
# SK-MEL-5 melanoma = tested on: SK-MEL-5 melanoma
# SK-OV-3 ovarian = tested on: SK-OV-3 ovarian
# SN12C renal = tested on: SN12C renal
# SNB-19 CNS = tested on: SNB-19 CNS
# SNB-75 CNS = tested on: SNB-75 CNS
# SW-620 colon = tested on: SW-620 colon
# T-47D breast = tested on: T-47D breast
# TK-10 renal = tested on: TK-10 renal
# U251 CNS = tested on: U251 CNS
# UACC-257 melanoma = tested on: UACC-257 melanoma
# UACC-62 melanoma = tested on: UACC-62 melanoma
# UO-31 renal = tested on: UO-31 renal
# CAKI-1 renal = tested on: CAKI-1 renal
# CCRF-CEM leukemia = tested on: CCRF-CEM leukemia
# KM12 colon = tested on: KM12 colon
# OVCAR-3 ovarian = tested on: OVCAR-3 ovarian
# RPMI-8226 leukemia = tested on: RPMI-8226 leukemia
# SF-295 CNS = tested on: SF-295 CNS
smiles,measurement,setting,value
Cc1ccc2c[c]1[Hg][CH2]COS2(=O)=O,GI50,786-0 renal,18.1 µM
same,TGI,786-0 renal,32 µM
same,GI50,A498 renal,15.8 µM
same,TGI,A498 renal,29.3 µM
same,GI50,A549 NSCLC,> 100 µM
same,TGI,A549 NSCLC,> 100 µM
same,GI50,ACHN renal,16.2 µM
same,TGI,ACHN renal,29.7 µM
same,GI50,BT-549 breast,17.8 µM
same,TGI,BT-549 breast,31.6 µM
same,GI50,COLO 205 colon,18.8 µM
same,TGI,COLO 205 colon,32.8 µM
same,GI50,DU-145 prostate,18.8 µM
same,TGI,DU-145 prostate,32.8 µM
same,GI50,EKVX NSCLC,21.5 µM
same,TGI,EKVX NSCLC,38.5 µM
same,GI50,HCC-2998 colon,15.7 µM
same,TGI,HCC-2998 colon,34.5 µM
same,GI50,HCT-116 colon,16.6 µM
same,TGI,HCT-116 colon,30.2 µM
same,GI50,HCT-15 colon,16.4 µM
same,TGI,HCT-15 colon,30 µM
same,GI50,HL-60(TB) leukemia,21.8 µM
same,TGI,HL-60(TB) leukemia,42.1 µM
same,GI50,HOP-62 NSCLC,71.7 µM
same,TGI,HOP-62 NSCLC,> 100 µM
same,GI50,HOP-92 NSCLC,19.5 µM
same,TGI,HOP-92 NSCLC,38.3 µM
same,GI50,HS 578T breast,23.7 µM
same,TGI,HS 578T breast,58.1 µM
same,GI50,HT29 colon,17.9 µM
same,TGI,HT29 colon,31.8 µM
same,GI50,IGROV1 ovarian,5.3 µM
same,TGI,IGROV1 ovarian,20.7 µM
same,GI50,K-562 leukemia,16.4 µM
same,TGI,K-562 leukemia,41.2 µM
same,GI50,LOX IMVI melanoma,18.5 µM
same,TGI,LOX IMVI melanoma,36.4 µM
same,GI50,M14 melanoma,17.4 µM
same,TGI,M14 melanoma,31.2 µM
same,GI50,MALME-3M melanoma,19.8 µM
same,TGI,MALME-3M melanoma,34 µM
same,GI50,MCF7 breast,17.9 µM
same,TGI,MCF7 breast,39.4 µM
same,GI50,MDA-MB-231 breast,17.5 µM
same,TGI,MDA-MB-231 breast,32 µM
same,GI50,MDA-MB-435,24.7 µM
same,TGI,MDA-MB-435,39.4 µM
same,GI50,MOLT-4 leukemia,18.1 µM
same,TGI,MOLT-4 leukemia,34.1 µM
same,GI50,NCI-H226 lung,19.8 µM
same,TGI,NCI-H226 lung,43.5 µM
same,GI50,NCI-H23 lung,23.4 µM
same,TGI,NCI-H23 lung,49.2 µM
same,GI50,NCI-H460 lung,> 100 µM
same,TGI,NCI-H460 lung,> 100 µM
same,GI50,NCI-H522 lung,22.6 µM
same,TGI,NCI-H522 lung,42.8 µM
same,GI50,NCI/ADR-RES ovarian,25 µM
same,TGI,NCI/ADR-RES ovarian,62.1 µM
same,GI50,OVCAR-4 ovarian,11.3 µM
same,TGI,OVCAR-4 ovarian,23.4 µM
same,GI50,OVCAR-5 ovarian,18.7 µM
same,TGI,OVCAR-5 ovarian,37.4 µM
same,GI50,OVCAR-8 ovarian,16 µM
same,TGI,OVCAR-8 ovarian,29.5 µM
same,GI50,PC-3 prostate,18.3 µM
same,TGI,PC-3 prostate,32.4 µM
same,GI50,RXF 393 renal,15.9 µM
same,TGI,RXF 393 renal,29.3 µM
same,GI50,SF-268 CNS,18 µM
same,TGI,SF-268 CNS,32.4 µM
same,GI50,SF-539 CNS,18 µM
same,TGI,SF-539 CNS,32.5 µM
same,GI50,SK-MEL-2 melanoma,21.4 µM
same,TGI,SK-MEL-2 melanoma,38.4 µM
same,GI50,SK-MEL-28 melanoma,16.4 µM
same,TGI,SK-MEL-28 melanoma,29.9 µM
same,GI50,SK-MEL-5 melanoma,16.7 µM
same,TGI,SK-MEL-5 melanoma,30.3 µM
same,GI50,SK-OV-3 ovarian,> 100 µM
same,TGI,SK-OV-3 ovarian,> 100 µM
same,GI50,SN12C renal,17.2 µM
same,TGI,SN12C renal,30.9 µM
same,GI50,SNB-19 CNS,> 100 µM
same,TGI,SNB-19 CNS,> 100 µM
same,GI50,SNB-75 CNS,> 100 µM
same,TGI,SNB-75 CNS,> 100 µM
same,GI50,SW-620 colon,17.8 µM
same,TGI,SW-620 colon,31.6 µM
same,GI50,T-47D breast,15 µM
same,TGI,T-47D breast,29.7 µM
same,GI50,TK-10 renal,17.8 µM
same,TGI,TK-10 renal,31.7 µM
same,GI50,U251 CNS,17.5 µM
same,TGI,U251 CNS,31.3 µM
same,GI50,UACC-257 melanoma,16.4 µM
same,TGI,UACC-257 melanoma,29.9 µM
same,GI50,UACC-62 melanoma,17.2 µM
same,TGI,UACC-62 melanoma,30.9 µM
same,GI50,UO-31 renal,17.3 µM
same,TGI,UO-31 renal,31 µM
C[C@]12CC/C(=N\N)C[C@@H]1CC[C@@H]1[C@@H]2CC[C@]2(C)/C(=N/N)CC[C@@H]12,GI50,786-0 renal,> 100 µM
same,TGI,786-0 renal,> 100 µM
same,GI50,A498 renal,> 100 µM
same,TGI,A498 renal,> 100 µM
same,GI50,A549 NSCLC,> 100 µM
same,TGI,A549 NSCLC,> 100 µM
same,GI50,ACHN renal,> 100 µM
same,TGI,ACHN renal,> 100 µM
same,GI50,BT-549 breast,> 100 µM
same,TGI,BT-549 breast,> 100 µM
same,GI50,CAKI-1 renal,> 100 µM
same,TGI,CAKI-1 renal,> 100 µM
same,GI50,CCRF-CEM leukemia,> 100 µM
same,TGI,CCRF-CEM leukemia,> 100 µM
same,GI50,DU-145 prostate,> 100 µM
same,TGI,DU-145 prostate,> 100 µM
same,GI50,EKVX NSCLC,> 100 µM
same,TGI,EKVX NSCLC,> 100 µM
same,GI50,HCC-2998 colon,> 100 µM
same,TGI,HCC-2998 colon,> 100 µM
same,GI50,HCT-116 colon,> 100 µM
same,TGI,HCT-116 colon,> 100 µM
same,GI50,HCT-15 colon,> 100 µM
same,TGI,HCT-15 colon,> 100 µM
same,GI50,HL-60(TB) leukemia,> 100 µM
same,TGI,HL-60(TB) leukemia,> 100 µM
same,GI50,HOP-62 NSCLC,> 100 µM
same,TGI,HOP-62 NSCLC,> 100 µM
same,GI50,HOP-92 NSCLC,> 100 µM
same,TGI,HOP-92 NSCLC,> 100 µM
same,GI50,HT29 colon,> 100 µM
same,TGI,HT29 colon,> 100 µM
same,GI50,IGROV1 ovarian,> 100 µM
same,TGI,IGROV1 ovarian,> 100 µM
same,GI50,K-562 leukemia,> 100 µM
same,TGI,K-562 leukemia,> 100 µM
same,GI50,KM12 colon,> 100 µM
same,TGI,KM12 colon,> 100 µM
same,GI50,LOX IMVI melanoma,> 100 µM
same,TGI,LOX IMVI melanoma,> 100 µM
same,GI50,M14 melanoma,> 100 µM
same,TGI,M14 melanoma,> 100 µM
same,GI50,MALME-3M melanoma,> 100 µM
same,TGI,MALME-3M melanoma,> 100 µM
same,GI50,MCF7 breast,> 100 µM
same,TGI,MCF7 breast,> 100 µM
same,GI50,MDA-MB-231 breast,> 100 µM
same,TGI,MDA-MB-231 breast,> 100 µM
same,GI50,MDA-MB-435,> 100 µM
same,TGI,MDA-MB-435,> 100 µM
same,GI50,MOLT-4 leukemia,> 100 µM
same,TGI,MOLT-4 leukemia,> 100 µM
same,GI50,NCI-H23 lung,> 100 µM
same,TGI,NCI-H23 lung,> 100 µM
same,GI50,NCI-H460 lung,> 100 µM
same,TGI,NCI-H460 lung,> 100 µM
same,GI50,NCI-H522 lung,> 100 µM
same,TGI,NCI-H522 lung,> 100 µM
same,GI50,NCI/ADR-RES ovarian,> 100 µM
same,TGI,NCI/ADR-RES ovarian,> 100 µM
same,GI50,OVCAR-3 ovarian,> 100 µM
same,TGI,OVCAR-3 ovarian,> 100 µM
same,GI50,OVCAR-4 ovarian,> 100 µM
same,TGI,OVCAR-4 ovarian,> 100 µM
same,GI50,OVCAR-5 ovarian,> 100 µM
same,TGI,OVCAR-5 ovarian,> 100 µM
same,GI50,OVCAR-8 ovarian,> 100 µM
same,TGI,OVCAR-8 ovarian,> 100 µM
same,GI50,PC-3 prostate,> 100 µM
same,TGI,PC-3 prostate,> 100 µM
same,GI50,RPMI-8226 leukemia,> 100 µM
same,TGI,RPMI-8226 leukemia,> 100 µM
same,GI50,RXF 393 renal,> 100 µM
same,TGI,RXF 393 renal,> 100 µM
same,GI50,SF-268 CNS,> 100 µM
same,TGI,SF-268 CNS,> 100 µM
same,GI50,SF-295 CNS,> 100 µM
same,TGI,SF-295 CNS,> 100 µM
same,GI50,SF-539 CNS,> 100 µM
same,TGI,SF-539 CNS,> 100 µM
same,GI50,SK-MEL-2 melanoma,> 100 µM
same,TGI,SK-MEL-2 melanoma,> 100 µM
same,GI50,SK-MEL-5 melanoma,> 100 µM
same,TGI,SK-MEL-5 melanoma,> 100 µM
same,GI50,SK-OV-3 ovarian,> 100 µM
same,TGI,SK-OV-3 ovarian,> 100 µM
same,GI50,SN12C renal,> 100 µM
same,TGI,SN12C renal,> 100 µM
same,GI50,SNB-75 CNS,> 100 µM
same,TGI,SNB-75 CNS,> 100 µM
same,GI50,SW-620 colon,> 100 µM
same,TGI,SW-620 colon,> 100 µM
same,GI50,T-47D breast,> 100 µM
same,TGI,T-47D breast,> 100 µM
same,GI50,TK-10 renal,> 100 µM
same,TGI,TK-10 renal,> 100 µM
same,GI50,U251 CNS,> 100 µM
same,TGI,U251 CNS,> 100 µM
same,GI50,UACC-257 melanoma,> 100 µM
same,TGI,UACC-257 melanoma,> 100 µM
same,GI50,UACC-62 melanoma,> 100 µM
same,TGI,UACC-62 melanoma,> 100 µM
same,GI50,UO-31 renal,51 µM
same,TGI,UO-31 renal,> 100 µM
